Read-outs that look alike come from different tables or passages of the source.
Experiments:
[1] = biological target: T1, Pim-1 stably transfected into the U2OS human osteogenic sarcoma line (Homo sapiens, UniProt P11309); assay: Pim cell assay, phospho-BAD normalized against total BAD, U2OS stably transfected with Pim-1; format: cell-based
T1 construct: expressed in transfected cells; host or cells: U2OS human osteogenic sarcoma line
Protocol: (§1) The cell lines used in the assay were generated by the stable transfection of either Pim-1 or Pim-2 into the U2OS human osteogenic sarcoma line. The assay for determination of the Pim activity in the engineered U2OS cell lines measures levels of phospho-BAD normalized against total BAD protein levels. It was conducted as follows:
(§2) The adherent cells were dissociated from the flasks using non-enzymatic cell dissociation solution (Sigma # C5914). […] The cells were then incubated overnight at 37° C., 5% CO2.
(§3) In addition to the 10-point dosing curve of the test compound, DMSO alone was run as the high control.
(§4) This dilution in DMSO was then diluted again into cell growth medium. Aliquots (12 uL) of the compound diluted in growth medium were then transferred to the appropriate wells of the 96-well plates containing cells to yield a final DMSO concentration of 0.3%.
(§5) The cell plates containing lysis buffer were then immediately stored at −70° C.
(§6) These prepared lysates were then assayed for phospho and total BAD according to the manufacturer's protocols (Meso Scale Diagnostics, Cat# K15103C-3 & # K15103D-3). The plates were read on the MSD Sector Imager 6000, and results were calculated according to the assay protocols ((% Phosphoprotein=((2×Phospho signal)/(Phospho signal+Total signal))×100)).

[2] = biological target: T2, full length recombinant Pim-2 protein (Homo sapiens, UniProt Q9P1W9); assay: Pim-2 enzyme assay (HTRF, phosphorylation of biotinylated-BAD (S112) peptide); format: biochemical; conditions: read-out: Pim2_IC50
T2 construct: by full length recombinant Pim-1, Pim-2, or Pim-3 protein; hexahistidine tag followed by a thrombin cleavage site (N); made in house; host or cells: Sf9 (baculovirus) or E. coli (pET28)
T2 sequence (Q9P1W9 whole entry): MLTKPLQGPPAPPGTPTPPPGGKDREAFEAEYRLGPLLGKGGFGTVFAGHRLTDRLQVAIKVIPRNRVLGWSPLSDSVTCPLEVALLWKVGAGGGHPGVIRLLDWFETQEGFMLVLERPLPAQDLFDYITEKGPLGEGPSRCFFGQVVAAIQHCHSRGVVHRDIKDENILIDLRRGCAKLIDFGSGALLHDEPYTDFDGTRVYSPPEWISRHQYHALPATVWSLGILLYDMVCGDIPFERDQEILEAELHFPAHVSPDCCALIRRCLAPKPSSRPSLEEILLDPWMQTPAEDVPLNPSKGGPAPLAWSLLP
Summary of the method: (§7)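 Each full-length human Pim enzyme phosphorylates a biotinylated BAD (S112) peptide, and the product is sensed by Eu anti-phospho-BAD antibody with streptavidin-APC after quenching with 3 mM EDTA. Conditions: 60 mM Hepes pH 7.0, 0.05% BSA, 2 mM DTT.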

[3] = biological target: T3, full length recombinant Pim-1 protein (Homo sapiens, UniProt P11309); assay: Pim-1 enzyme assay (HTRF, phosphorylation of biotinylated-BAD (S112) peptide); format: biochemical; conditions: read-out: Pim_1_IC50
T3 construct: by full length recombinant Pim-1, Pim-2, or Pim-3 protein; hexahistidine tag followed by a thrombin cleavage site (N); made in house; host or cells: Sf9 (baculovirus) or E. coli (pET28)
T3 sequence (P11309 whole entry): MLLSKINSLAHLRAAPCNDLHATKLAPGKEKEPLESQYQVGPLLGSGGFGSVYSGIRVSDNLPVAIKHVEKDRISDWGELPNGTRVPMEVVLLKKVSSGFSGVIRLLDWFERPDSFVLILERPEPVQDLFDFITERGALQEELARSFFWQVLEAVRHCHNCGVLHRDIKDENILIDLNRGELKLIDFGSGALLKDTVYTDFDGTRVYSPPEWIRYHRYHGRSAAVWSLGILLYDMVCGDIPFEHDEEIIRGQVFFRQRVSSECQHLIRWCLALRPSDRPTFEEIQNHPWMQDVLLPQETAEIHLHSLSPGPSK
Summary of the method: as §7

[4] = biological target: T4, Pim-2 stably transfected into the U2OS human osteogenic sarcoma line (Homo sapiens, UniProt Q9P1W9); assay: Pim cell assay, phospho-BAD normalized against total BAD, U2OS stably transfected with Pim-2; format: cell-based
T4 construct: expressed in transfected cells; host or cells: U2OS human osteogenic sarcoma line
T4 sequence (Q9P1W9 whole entry): as the sequence (Q9P1W9 whole entry) above
Protocol: as §1, §2, §3, §4, §5, §6

[5] = U2OS stably transfected with Pim-1, phospho-BAD normalized against total BAD, 29 min incubation, read-out: Pim1_Cell_IC50_
[6] = U2OS stably transfected with Pim-2, phospho-BAD normalized against total BAD, 29 min incubation, read-out: Pim2_Cell_IC50_
[7] = U2OS cells stably transfected with Pim-2, phospho-BAD, high dose […], read-out: Pim2_Cell_IC50
[8] = U2OS cells stably transfected with Pim-1, phospho-BAD, high dose […], read-out: Pim1_Cell_IC50

T1 sequence (P11309 whole entry): as the sequence (P11309 whole entry) above

| Compound | IC50 [1, 5] [nM] | IC50 [2] [nM] | IC50 [3] [nM] | also measured |
| --- | --- | --- | --- | --- |
| Fc1cccc(F)c1-c1ccc2[nH]nc(-c3cncc(SC4CCCNC4)n3)c2c1 (single isomer, unassigned) [Example 414] | 1540 | 60 | 7 |  |
| CC(C)Oc1cncc(-c2ccc3[nH]nc(-c4cncc(N5CCC(N)CC5)n4)c3c2)n1 [Example 5, 1-(6-(5-(6-isopropoxypyrazin-2-yl)-1H-indazol-3-yl)pyrazin-2-yl)piperidin-4-amine] |  |  |  | IC50 [4, 7]: 5440 nM; IC50 [1, 8]: 45 nM; IC50 ([2]; enzyme assay, Pim-2): 16 nM |
| NC1CCN(c2cncc(-c3n[nH]c4ccc(-c5cnc6[nH]nc(C(F)(F)F)c6c5)cc34)n2)CC1 [Example 6, 1-(6-(5-(3-(trifluoromethyl)-1H-pyrazolo[3,4-b]pyridin-5-yl)-1H-indazol-3-yl)pyrazin-2-yl)piperidin-4-amine] |  |  |  | IC50 [4, 7]: > 31600 nM; IC50 [1, 8]: 1880 nM; IC50 ([2]; enzyme assay, Pim-2): 35 nM; IC50 ([3]; enzyme assay, Pim-1): 1 nM |
| COc1cncc(-c2ccc3[nH]nc(-c4ccnc(N5CCC(N)CC5)n4)c3c2)c1 [Example 30, 1-(4-(5-(5-Methoxypyridin-3-yl)-1H-indazol-3-yl)pyrimidin-2-yl)piperidin-4-amine] |  |  |  | IC50 ([4]; read-out: Pim2_Cell_IC50): 2240 nM; IC50 ([1]; read-out: Pim1_Cell_IC50): 89 nM; IC50 ([2]; enzyme assay, Pim-2): 7 nM; IC50 ([3]; enzyme assay, Pim-1): 1 nM |
| Nc1cnnc(-c2ccc3[nH]nc(-c4cncc(N5CCC(N)CC5)n4)c3c2)c1 [Example 104, 6-(3-(6-(4-amino-1-piperidinyl)-2-pyrazinyl)-1H-indazol-5-yl)-4-pyridazinamine] |  |  |  | IC50 [4, 7]: > 31600 nM; IC50 [1, 8]: 1920 nM; IC50 ([2]; enzyme assay, Pim-2): 1 nM |
| NC1CCN(c2cncc(-c3n[nH]c4ccc(-c5cncc(C6CC6)n5)cc34)n2)CC1 [Example 109, 1-(6-(5-(6-cyclopropyl-2-pyrazinyl)-1H-indazol-3-yl)-2-pyrazinyl)-4-piperidinamine] |  |  |  | IC50 [4, 7]: 1730 nM; IC50 ([2]; enzyme assay, Pim-2): 2 nM |
| c1cc2[nH]nc(-c3cncc(N[C@@H]4CCCNC4)n3)c2cc1-c1cncc(C2CC2)n1 [Example 243, 6-(5-(6-cyclopropyl-2-pyrazinyl)-1H-indazol-3-yl)-N-((3R)-3-piperidinyl)-2-pyrazinamine] | 99 | 8 |  | IC50 [4, 6]: 5590 nM |
| O=c1cc(-c2c[nH]c3ccc(-c4c(F)cccc4F)cc23)nc(N[C@@H]2CCCNC2)[nH]1 [Example 279, (R)-6-(5-(2,6-difluorophenyl)-1H-indol-3-yl)-2-(piperidin-3-ylamino)pyrimidin-4(3H)-one] | 2400 |  | 1 | IC50 [4, 6]: > 31600 nM |
| Cc1ccn(-c2cccc(-c3ccc4[nH]cc(-c5cncc(O[C@@H]6CCCNC6)n5)c4c3)n2)n1 [Example 307] | 1600 | 114 | 6 |  |
| COc1cccc(-c2ccc3[nH]cc(-c4cncc(O[C@@H]5CCCNC5)n4)c3c2)c1 [Example 320] | 592 | 30 | 6 |  |
| COc1c(C)cc(-c2ccc3[nH]cc(-c4cncc(O[C@@H]5CCCNC5)n4)c3c2)cc1C [Example 331] | 1280 | 111 | 8 |  |
| NC1CCN(c2cncc(-c3n[nH]c4ccc(-c5cncc(C6CC6)n5)cc34)n2)CC1 [Example 503, 1-(6-(5-(6-cyclopropyl-2-pyrazinyl)-1H-indazol-3-yl)-2-pyrazinyl)-4-piperidinamine] | 76 | 2 |  | IC50 [4, 6]: 3680 nM |
| NC1CCN(c2cncc(-c3n[nH]c4ccc(-c5cncc(NC6CC6)n5)cc34)n2)CC1 [Example 509] | 51 | 6 |  | IC50 [4, 6]: 4230 nM |
| O=c1cc(-c2n[nH]c3ccc(-c4c(F)cccc4F)cc23)nc(N2CC[C@H](O)C2)[nH]1 [Example 543] |  | 58 | 30 |  |
| c1cc2[nH]cc(-c3cncc(O[C@@H]4CCCNC4)n3)c2cc1-c1csc(N2CCCC2)n1 [Example 553] |  | 520 | 77 |  |
| COC(=O)c1ccc2[nH]nc(-c3cncc(NC4CCNCC4)n3)c2c1 [Example 559] | 202 | 1 |  | IC50 [4, 6]: 8120 nM |
| COc1cc(-c2c[nH]c3ccc(-c4c(F)cccc4F)cc23)nc(N2CCOCC2)n1 [Example 562] |  | > 1000 | > 1000 |  |
| COc1cc(N2CCC(N)CC2)nc(-c2c[nH]c3ccc(-c4c(F)cccc4F)cc23)n1 [Example 563] |  | 143 | 87 |  |

Continued, in another order:

| IC50 [1, 5] [nM] | IC50 [2] [nM] | IC50 [3] [nM] | Compound | also measured |
| --- | --- | --- | --- | --- |
| 1660 | 194 | 17 | CC1CCNCC1Oc1cncc(-c2n[nH]c3ccc(-c4c(F)cccc4F)cc23)n1 (single isomer, unassigned) [Example 423] | IC50 [4, 6]: > 31600 nM |
| 2410 | 114 | 20 | CC1(C)CNCCC1Oc1cncc(-c2n[nH]c3ccc(-c4c(F)cccc4F)cc23)n1 (single isomer, unassigned) [Example 432] | IC50 [4, 6]: > 31600 nM |
| 801 | 22 | 2 | CC1(C)CNCCC1Oc1cncc(-c2n[nH]c3ccc(-c4c(F)cccc4F)cc23)n1 (single isomer, unassigned) [Example 433] | IC50 [4, 6]: > 10000 nM |
| 2540 | 122 | 13 | c1cc(OC2CCC2)nc(-c2ccc3[nH]cc(-c4cncc(O[C@@H]5CCCNC5)n4)c3c2)c1 [Example 301] |  |
| 995 | 189 | 9 | c1cc2[nH]cc(-c3cncc(O[C@@H]4CCCNC4)n3)c2cc1-c1cncc(N2CCCC2)n1 [Example 302] |  |
| 754 | 127 | 7 | Cc1nccn1-c1cccc(-c2ccc3[nH]cc(-c4cncc(O[C@@H]5CCCNC5)n4)c3c2)n1 [Example 305] |  |
| 160 | 76 | 8 | CC(C)n1cc(-c2ccc3[nH]cc(-c4cncc(O[C@@H]5CCCNC5)n4)c3c2)cn1 [Example 308, 5-(1-(1-methylethyl)-1H-pyrazol-4-yl)-3-(6-((3R)-3-piperidinyloxy)-2-pyrazinyl)-1H-indole] |  |
| 295 | 41 | 6 | COc1ccc(-c2ccc3[nH]cc(-c4cncc(O[C@@H]5CCCNC5)n4)c3c2)cn1 [Example 310] |  |
| 1310 | 31 | 9 | CC1(C)CC1c1ccc2[nH]cc(-c3cncc(O[C@@H]4CCCNC4)n3)c2c1 (stereo partly shown) [Example 312] |  |
| 1310 | 67 | 8 | c1cc(OCC2CC2)ncc1-c1ccc2[nH]cc(-c3cncc(O[C@@H]4CCCNC4)n3)c2c1 [Example 323] |  |
| 83 | 1 |  | c1cc2[nH]nc(-c3cncc(NC4CCNCC4)n3)c2cc1-c1cncc(C2CC2)n1 [Example 369, 6-(5-(6-cyclopropyl-2-pyrazinyl)-1H-indazol-3-yl)-N-4-piperidinyl-2-pyrazinamine] | IC50 [4, 6]: 3700 nM |
| 1480 | 335 | 15 | CC1(Oc2cncc(-c3n[nH]c4ccc(-c5c(F)cccc5F)cc34)n2)CCCNC1 (stereo not shown) [Example 417] |  |
| 7560 | 127 | 5 | NC1CCN(c2cncc(-c3n[nH]c4ccc(-c5cc6[nH]ccc6cn5)cc34)n2)CC1 [Example 504] |  |
| 1370 | 1 |  | Nc1cncc(-c2ccc3[nH]nc(-c4cncc(N5CCC(N)CC5)n4)c3c2)n1 [Example 508] | IC50 [4, 6]: > 31600 nM |
|  | > 1000 | 834 | O=C(O)c1ccc2[nH]cc(-c3nccc(N[C@@H]4CCCNC4)n3)c2c1 [Example 539] |  |
|  | 396 | 70 | N#Cc1ccc2[nH]nc(-c3cncc(N[C@@H]4CCCNC4)n3)c2c1 [Example 540] |  |
|  | > 1000 | > 1000 | CN(C)C(=O)c1ccc2[nH]nc(-c3cncc(O[C@@H]4CCCNC4)n3)c2c1 [Example 556] |  |
|  | > 1000 | > 1000 | CN(C)C(=O)c1ccc2[nH]nc(-c3ccnc(O[C@@H]4CCCNC4)n3)c2c1 [Example 557] |  |
| 394 | 5 |  | CC(C)OC(=O)c1ccc2[nH]nc(-c3cncc(NC4CCNCC4)n3)c2c1 [Example 560] | IC50 [4, 6]: 4780 nM |
|  | > 1000 | > 1000 | CN(C)C(=O)c1ccc2[nH]nc(-c3ccnc(NC4CCNCC4)n3)c2c1 [Example 561] |  |

— patent US9090593B2, “Bicyclic compounds as Pim inhibitors” (AMGEN INC., priority 2010, dated 2015)
